Reference: US20240245658A1, “TAAR1 AND SEROTONIN MODULATORS, AND PHARMACEUTICAL COMPOSITIONS, AND METHODS OF USE THEREOF” (Sunovion Pharmaceuticals Inc., priority 2021, published 2024)
pEC50, pIC50: −log10 of the molar value. Like-named read-outs stand apart in the source and are kept apart here.

Experiments:
Format in all cases: cell-based
human 5-HT2A receptor = molecular target: T1, human 5-HT2A receptor (Homo sapiens, UniProt P28223); assay: 5HT2A Antagonism Assay (Euroscreen FAST-05051), IP-One HTRF
T1 construct: host or cells: CHO-K1
T1 sequence (P28223 whole entry): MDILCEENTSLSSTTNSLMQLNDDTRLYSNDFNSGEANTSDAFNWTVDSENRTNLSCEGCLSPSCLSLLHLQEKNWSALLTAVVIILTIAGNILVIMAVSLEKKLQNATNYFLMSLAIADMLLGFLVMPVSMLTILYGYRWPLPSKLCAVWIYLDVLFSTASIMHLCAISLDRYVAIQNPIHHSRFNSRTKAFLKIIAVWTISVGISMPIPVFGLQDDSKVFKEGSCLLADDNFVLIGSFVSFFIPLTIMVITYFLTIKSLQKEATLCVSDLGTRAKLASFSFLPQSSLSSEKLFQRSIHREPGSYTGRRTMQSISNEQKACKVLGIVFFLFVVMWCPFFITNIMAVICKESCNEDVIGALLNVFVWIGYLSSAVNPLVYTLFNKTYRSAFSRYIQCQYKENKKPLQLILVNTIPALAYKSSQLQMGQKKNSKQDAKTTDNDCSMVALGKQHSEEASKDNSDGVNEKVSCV
In short: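 CHO-K1 cells expressing receptor, 20,000/well, co-incubated with test compound and reference agonist at its EC80 for 60 min at 37 °C. IP1 accumulation read by HTRF after ~1 h detection at room temperature. Compounds tested in duplicate at 0.3–10,000 nM.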

human TAAR1 receptors = molecular target: T2, human TAAR1 receptors (Homo sapiens, UniProt Q96RJ0); assay: TAAR1 Agonism Assay: cAMP HTRF assay for Gs coupled receptor TAAR1 (Euroscreen FAST-0987C); conditions: CHO-K1 cells expressing human TAAR1, cAMP HTRF
T2 construct: host or cells: CHO-K1
T2 sequence (Q96RJ0 1-339): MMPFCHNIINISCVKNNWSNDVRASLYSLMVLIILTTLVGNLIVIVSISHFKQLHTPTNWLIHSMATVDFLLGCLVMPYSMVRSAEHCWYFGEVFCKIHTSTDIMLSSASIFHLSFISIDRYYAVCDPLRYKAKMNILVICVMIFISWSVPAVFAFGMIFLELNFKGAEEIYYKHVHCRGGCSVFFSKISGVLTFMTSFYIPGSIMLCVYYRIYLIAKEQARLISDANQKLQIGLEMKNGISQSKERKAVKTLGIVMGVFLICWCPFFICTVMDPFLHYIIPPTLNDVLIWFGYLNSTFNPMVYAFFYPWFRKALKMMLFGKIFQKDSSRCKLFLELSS
In short: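 cAMP accumulation detected by HTRF fluorescence ratio, reagents added in lysis buffer and incubated 1 h at about room temperature. Beforehand, cells (about 3,000 per well) sat with test compound at ten concentrations from 0.3 to 10,000 nM in duplicate for roughly 30 min at about room temperature; tyramine dose-response run alongside.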

human 5-HT7 receptor = molecular target: T3, human 5-HT7 receptor (Homo sapiens, UniProt P34969); assay: 5HT7 Antagonism Assay (Euroscreen FAST-0499C), cAMP HTRF; conditions: CHO-K1 cells expressing human 5-HT7, reference agonist at EC80, cAMP HTRF
T3 construct: host or cells: CHO-K1
T3 sequence (P34969 whole entry): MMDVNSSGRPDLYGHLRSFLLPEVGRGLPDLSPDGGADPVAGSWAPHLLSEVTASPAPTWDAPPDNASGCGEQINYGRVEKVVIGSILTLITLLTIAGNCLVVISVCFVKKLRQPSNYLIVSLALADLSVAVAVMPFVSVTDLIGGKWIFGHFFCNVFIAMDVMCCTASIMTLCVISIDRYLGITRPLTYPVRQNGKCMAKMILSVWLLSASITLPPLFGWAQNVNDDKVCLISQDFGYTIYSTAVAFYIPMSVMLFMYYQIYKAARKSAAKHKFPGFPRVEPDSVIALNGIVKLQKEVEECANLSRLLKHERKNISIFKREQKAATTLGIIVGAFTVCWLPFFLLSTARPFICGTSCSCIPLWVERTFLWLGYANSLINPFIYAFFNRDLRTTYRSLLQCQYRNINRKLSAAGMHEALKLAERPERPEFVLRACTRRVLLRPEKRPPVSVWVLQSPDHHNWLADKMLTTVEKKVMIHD
In short: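 CHO-K1 cells expressing human 5-HT7, 3000 per well in Krebs-Ringer HEPES with 1 mM IBMX, were exposed for 30 minutes at room temperature to compound plus reference agonist at its EC80. cAMP was read by HTRF after 1 hour; compounds were tested in duplicate from 0.3 to 10,000 nM.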

[1] = 5-HT2A (IC50), CHO-K1 cells expressing human 5-HT2A, reference agonist at EC80, IP-One
[2] = CHO-K1 cells expressing human 5-HT2A, reference agonist at EC80, IP-One, read-out: 5-HT2A (IC50)
[3] = read-out: 5-HT2A (IC50), CHO-K1 cells expressing human 5-HT2A, reference agonist at EC80, IP-One

SMILES	pIC50 (human 5-HT2A receptor; [1])	pEC50 (human TAAR1 receptors)	pIC50 (human 5-HT7 receptor)	pIC50 (human 5-HT2A receptor; [2])	pIC50 (human 5-HT2A receptor; [3])
NCC1Cc2ccccc2Oc2cccc(F)c21 (single isomer, unassigned) [Compound 105, (S*)-(9-fluoro-10,11-dihydrodibenzo[b,f]oxepin-10-yl)methanamine]	< 5.00	5.00 to 6.00	≤ 5.00		
CNC[C@@H]1c2ncccc2Oc2ccccc2[C@H]1C (stereo in doubt) [Compound 118, ((10S*,11R*)-10-methyl-10,11-dihydrobenzo[6,7]oxepino[3,2-b]pyridin-11-yl)-N-methylmethanamine]	5.00 to 6.00	> 6.00	≤ 5.00		
NCC1Cc2c(Cl)cccc2Oc2cccnc21 (single isomer, unassigned) [Compound 144, (S*)-(9-chloro-10,11-dihydrobenzo[6,7]oxepino[3,2-b]pyridin-11-yl)methanamine]	> 6.00	> 6.00	≤ 5.00		
C[C@@H]1c2ccccc2Oc2cccnc2[C@H]1CN (stereo in doubt) [Compound 114, ((10S*,11R*)-10-methyl-10,11-dihydrobenzo[6,7]oxepino[3,2-b]pyridin-11-yl)methanamine]	5.00 to 6.00	> 6.00	≤ 5.00		
NCC1Cc2cccnc2Oc2ccccc21 (single isomer, unassigned) [Compound 17, (R*)-(5,6-dihydrobenzo[6,7]oxepino[2,3-b]pyridin-6-yl)methanamine]	> 6.00	> 6.00	≤ 5.00		
CNC[C@H]1Oc2ccccc2Oc2ccncc21 (single isomer, unassigned) [Compound 56, (S*)-1-(11H-benzo[2,3][1,4]dioxepino[6,5-c]pyridin-11-yl)-N-methylmethanamine]		< 5.00	≤ 5.00	< 5.00	
NCC1Cc2ccccc2Oc2cccc(F)c21 (single isomer, unassigned) [Compound 104, (R*)-(9-fluoro-10,11-dihydrodibenzo[b,f]oxepin-10-yl)methanamine]	5.00 to 6.00	> 6.00	≤ 5.00		
Cc1ccc2c(c1)CC(CN)c1ncccc1O2 (single isomer, unassigned) [Compound 128, (S*)-(8-methyl-10,11-dihydrobenzo[6,7]oxepino[3,2-b]pyridin-11-yl)methanamine]	5.00 to 6.00	> 6.00	5.00 to 6.00		
CNCC1Cc2cccc(F)c2Oc2ccccc21 (single isomer, unassigned) [Compound 86, (R*)-(4-fluoro-10,11-dihydrodibenzo[b,f]oxepin-10-yl)-N-methylmethanamine]	> 6.00	> 6.00	5.00 to 6.00		
CNCC1Cc2ncccc2Oc2cc(Cl)ccc21 (single isomer, unassigned) [Compound 174, (S*)-1-(7-chloro-10,11-dihydrobenzo[6,7]oxepino[3,2-b]pyridin-10-yl)-N-methylmethanamine]		< 5.00	5.00 to 6.00	> 6.00	
NCC1Cc2ncc(F)cc2Oc2ccccc21 (single isomer, unassigned) [Compound 40, (S*)-(3-fluoro-10,11-dihydrobenzo[6,7]oxepino[3,2-b]pyridin-10-yl)methanamine]		> 6.00	≤ 5.00		> 6.00
NCC1Oc2ccccc2Oc2cnccc21 (single isomer, unassigned) [Compound 50, (S*)-(5H-benzo[2,3][1,4]dioxepino[5,6-c]pyridin-5-yl)methanamine]		> 6.00	≤ 5.00		< 5.00
CNCC1Oc2ccccc2Oc2ncccc21 (single isomer, unassigned) [Compound 46, (S*)-1-(5H-benzo[2,3][1,4]dioxepino[5,6-b]pyridin-5-yl)-N-methylmethanamine]		5.00 to 6.00	≤ 5.00	5.00 to 6.00	
NCC1Cc2ccncc2Oc2ccccc21 (single isomer, unassigned) [Compound 22, (S*)-(5,6-dihydrobenzo[6,7]oxepino[2,3-c]pyridin-6-yl)methanamine]		5.00 to 6.00	≤ 5.00		5.00 to 6.00
NCC1Cc2ncc(Cl)cc2Oc2ccccc21 (single isomer, unassigned) [Compound 180, (S*)-(3-chloro-10,11-dihydrobenzo[6,7]oxepino[3,2-b]pyridin-10-yl)methanamine]		> 6.00	≤ 5.00		5.00 to 6.00
NCC1Oc2ccccc2Oc2cnccc21 (single isomer, unassigned) [Compound 49, (R*)-(5H-benzo[2,3][1,4]dioxepino[5,6-c]pyridin-5-yl)methanamine]	< 5.00	5.00 to 6.00	≤ 5.00		
CNCC1Cc2cc(Cl)ccc2Oc2cccnc21 (single isomer, unassigned) [Compound 122, (S*)-(8-chloro-10,11-dihydrobenzo[6,7]oxepino[3,2-b]pyridin-11-yl)-N-methylmethanamine]	> 6.00	> 6.00	5.00 to 6.00		
NCC1Cc2c(F)cccc2Oc2ccccc21 (single isomer, unassigned) [Compound 81, (S*)-(1-fluoro-10,11-dihydrodibenzo[b,f]oxepin-10-yl)methanamine]		> 6.00	≤ 5.00		> 6.00
N#Cc1ccc2c(c1)C(CN)Cc1ncccc1O2 (single isomer, unassigned) [Compound 159, (R*)-10-(aminomethyl)-10,11-dihydrobenzo[6,7]-oxepino[3,2-b]pyridine-8-carbonitrile]	< 5.00	5.00 to 6.00	≤ 5.00		
Cc1cccc2c1CC(CN)c1ncccc1O2 (single isomer, unassigned) [Compound 141, (R*)-(9-methyl-10,11-dihydrobenzo[6,7]oxepino[3,2-b]pyridin-11-yl)methanamine]	> 6.00	> 6.00	≤ 5.00		
NCC1Cc2ccccc2Oc2cc(F)ccc21 (single isomer, unassigned) [Compound 2, (S*)-(7-fluoro-10,11-dihydrodibenzo[b,f]oxepin-10-yl)methanamine]		> 6.00	≤ 5.00		> 6.00
Cc1ccc2c(n1)C(CN)Cc1ccccc1O2 (single isomer, unassigned) [Compound 149, (R*)-(2-methyl-10,11-dihydrobenzo[6,7]oxepino[3,2-b]pyridin-11-yl)methanamine]	> 6.00	> 6.00	≤ 5.00		
CNCC1Cc2ccc(F)cc2Oc2ccccc21 (single isomer, unassigned) [Compound 90, (R*)-(3-fluoro-10,11-dihydrodibenzo[b,f]oxepin-10-yl)-N-methylmethanamine]	> 6.00	< 5.00	5.00 to 6.00		
CNCC1Oc2ccccc2Oc2cnccc21 (single isomer, unassigned) [Compound 51, (R*)-1-(5H-benzo[2,3][1,4]dioxepino[5,6-c]pyridin-5-yl)-N-methylmethanamine]		5.00 to 6.00	≤ 5.00	5.00 to 6.00	
CNCC1Cc2ncccc2Oc2ccc(C#N)cc21 (single isomer, unassigned) [Compound 162, (S*)-10-((methylamino)methyl)-10,11-dihydrobenzo[6,7]oxepino[3,2-b]pyridine-8-carbonitrile]		< 5.00	≤ 5.00	5.00 to 6.00	
NCC1Cc2ccccc2Oc2cc(F)ccc21 (single isomer, unassigned) [Compound 1, (R*)-(7-fluoro-10,11-dihydrodibenzo[b,f]oxepin-10-yl)methanamine]	> 6.00	5.00 to 6.00	≤ 5.00		
CNCC1Cc2ncccc2Oc2ccc(F)cc21 (single isomer, unassigned) [Compound 166, (S*)-(8-fluoro-10,11-dihydrobenzo[6,7]oxepino[3,2-b]pyridin-10-yl)-N-methylmethanamine]		> 6.00	5.00 to 6.00		> 6.00
CNCC1Oc2ccccc2Oc2ncccc21 (single isomer, unassigned) [Compound 45, (R*)-1-(5H-benzo[2,3][1,4]dioxepino[5,6-b]pyridin-5-yl)-N-methylmethanamine]		< 5.00	≤ 5.00	5.00 to 6.00	
NCC1Cc2c(F)cccc2Oc2ccccc21 (single isomer, unassigned) [Compound 80, (R*)-(1-fluoro-10,11-dihydrodibenzo[b,f]oxepin-10-yl)methanamine]	> 6.00	> 6.00	≤ 5.00		
